Laboratory results from US20030114375A1, “Method for treating cystic fibrosis” (The Government of the USA, Dept of Health and Human …, priority 1994, published 2003).
Entries after “also recorded” stand apart in the source; their conditions may differ. Where two headings read alike, the source gives them in different places.

Key:
[1] = tested on: bovine chromaffin granules; assay: Chromaffin granule aggregation assay; type: biochemical; conditions: for Aggregation of chromaffin granules: 1 mM CaCl2, 20 μg/ml polypeptide
Protocol: Chromaffin granule aggregation assay: Adrenal glands were obtained from a local abattoir and transported to the laboratory on ice within 2 hours of slaughter. Tissue was processed as described in Brocklehurst et al. in Polypeptide Hormones: A Practical Approach (Oxford Univ. Press, K. Siddle and J. Hutton, eds., 1990) at pp. 237-255. Chromaffin granules were purified on a step gradient of metrizamide using standard procedures. After resuspension, the granule aggregation assay was performed as described (Brocklehurst et al., supra), and the synexin activity was assessed from the initial rate of optical density increase at 540 nm. Briefly, the assay was carried out at room temperature in a 1 ml quartz cuvette containing the chromaffin granule suspension in 0.3 mol/l sucrose, 40 mmol/l histidine buffer, pH 6.0, synexin and variable amounts of calcium chloride.

CFPAC cells [2] = assay: [36Cl]- efflux from CFPAC cells; conditions: for % control: chloride efflux at maximum impact relative to control: at Conc. max.; for % control: chloride efflux at minimum detection relative to control: at threshold concentration; for Efflux rate as compared to control (FIGS. 9-12): read from the graphs
Iα polypeptide = biological target: T1, Iα polypeptide (Homo sapiens, UniProt P13569); assay: Phosphatidylserine liposome aggregation driven by Iα polypeptide; type: biochemical; conditions: 0.5 μg/ml (0.18 μM) Iα; 2-thio-CPX up to 1 μM, IBMX up to 15 μM
T1 construct: made in house; host or cells: chemical solid-phase synthesis (Yale University)
Protocol: Liposome aggregation assay: Phosphatidylserine (“PS”, obtained from Avanti) was dissolved in chloroform, and small unilamellar liposomes were prepared by the extrusion process known in the art. A Lipex machine was used to extrude the PS in a buffer consisting of 10 mM Na-HEPES, pH 7.2 and 1 mM EDTA. The liposomes were diluted to a final optical density at 540 nm of 0.01 and incubated with different concentrations of the different polypeptides and/or chloride ion efflux-activating compounds.

A1-adenosine receptor = biological target: T2, A1-adenosine receptor (Rattus norvegicus, UniProt P25099); assay: Inhibition of [3H]N6-phenylisopropyladenosine binding to A1 receptors
T2 construct: Rat cerebral cortical membranes and striatal membranes were prepared; from tissue; host or cells: rat cerebral cortex membranes
T2 sequence (P25099 1-326): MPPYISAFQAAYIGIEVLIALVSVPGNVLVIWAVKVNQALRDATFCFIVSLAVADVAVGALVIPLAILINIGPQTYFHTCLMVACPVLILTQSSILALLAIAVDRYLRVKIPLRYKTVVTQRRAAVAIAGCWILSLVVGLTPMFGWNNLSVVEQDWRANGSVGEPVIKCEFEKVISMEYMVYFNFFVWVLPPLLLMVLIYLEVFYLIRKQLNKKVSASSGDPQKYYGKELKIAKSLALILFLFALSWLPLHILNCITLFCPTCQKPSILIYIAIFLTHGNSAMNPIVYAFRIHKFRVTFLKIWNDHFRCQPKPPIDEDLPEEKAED
Protocol: (§1) Solid samples of the adenosine derivatives were dissolved in dimethyl sulfoxide (DMSO) and stored in the art at. −20° C. The stock solutions were diluted with DMSO to a concentration of ≦0.1 mM prior to addition to the aqueous medium. The final concentration of DMSO in the assay medium was generally 2%.
Inhibition of binding of 1 nM [^3H]N^6-phenylisopropyladenosine (Dupont NEN, Boston, Mass.) to A1 receptors in rat cerebral cortex membranes was measured as described in Schwabe et al., Naunyn-Schmiedeberg's Arch. […] Membranes (^˜100 μg protein per tube) were incubated for 1.5 hours at 37° C. in a total volume of 0.5 ml of 50 mM tris hydrochloride at pH 7.4. Test drugs were dissolved in DMSO and added in 10 μl aliquots, resulting in a final DMSO concentration of 2%. Bound and free radioligand were separated by addition of 3 ml of a buffer containing 50 mM tris hydrochloride, at pH 7.4 at 5° C., followed by vacuum filtration using a Brandel Cell Harvester (Brandel, Gaithersburg, Md.) and a Whatman GF/B glass fiber filter with additional washes totaling 9 ml of buffer. Non-specific binding was determined with 10 μM 2-chloroadenosine.
(§2) At least six different concentrations spanning three orders of magnitude, adjusted appropriately for the IC50 of each compound, were used.

A2a-adenosine receptor = biological target: T3, A2a-adenosine receptor (Rattus norvegicus, UniProt P30543); assay: Inhibition of [3H]CGS 21680 binding to A2a receptors; conditions: for Ki: rat striatal membranes, 5 nM [3H]CGS 21680, read-out: Ki, μM(A2)
T3 construct: Rat cerebral cortical membranes and striatal membranes were prepared; from tissue; host or cells: rat striatal membranes
T3 sequence (P30543 whole entry): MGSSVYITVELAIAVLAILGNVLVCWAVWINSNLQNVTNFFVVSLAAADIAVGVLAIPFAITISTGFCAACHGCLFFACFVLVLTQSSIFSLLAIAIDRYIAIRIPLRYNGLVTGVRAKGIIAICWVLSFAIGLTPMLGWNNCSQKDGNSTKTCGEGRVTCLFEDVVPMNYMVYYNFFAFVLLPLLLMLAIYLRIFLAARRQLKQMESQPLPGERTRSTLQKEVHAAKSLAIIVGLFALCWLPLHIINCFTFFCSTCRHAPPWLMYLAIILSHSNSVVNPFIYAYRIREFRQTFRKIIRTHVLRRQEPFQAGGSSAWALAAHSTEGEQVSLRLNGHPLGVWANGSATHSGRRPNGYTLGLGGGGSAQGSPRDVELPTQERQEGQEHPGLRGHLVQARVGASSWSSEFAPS
Protocol: as §1
Membranes (^˜80 μg protein per tube) were incubated for one hour at 25° C. in a total volume of 0.5 ml of a buffer solution consisting of […] tris hydrochloride and 10 mM MgCl2 at pH 7.4. Test drugs were dissolved in DMSO and added in 10 μl aliquots, resulting in a final DMSO concentration of 2%. Non-specific binding was defined using 20 μM 2-chloroadenosine. Filtration was carried out using a Brandel Cell Harvester, as above, using the tris.HCl/MgCl2 buffer recited hereinabove as the washing buffer.
as §2

CFPAC cells [3] = conditions: U.S. Pat. No. 5,366,977 / Eidelman et al.; cited from earlier work
[4] = rat cerebral cortex membranes, 1 nM [3H]PIA, read-out: Ki, μM(A1)

Row | Compound | Conc. max. (nM): concentration at maximum impact upon chloride efflux (CFPAC cells [2]) | Ki (A1-adenosine receptor; [4]) | Ki (A2a-adenosine receptor) | other results
1 | Io: CFTR polypeptide, positions 500 to 530, NH2-GTIKENEEFGVSYDEYRYRSVIKACQLEEDIS-COOH |  |  |  | Aggregation of chromaffin granules [1]: inactive
2 | CCCn1c(=O)c2[nH]c(-c3ccc(OCC(=O)NCCN)cc3)nc2n(CCC)c1=O [Compound 26, reference compound] | >>10^4 nM |  |  | 
3 | Cn1c(=O)c2c(nc(C3CCCCC3)n2CC2CC2)n(C)c1=O (hydrate or solvate) [Compound 16] |  |  |  | melting point: > 120 °C
4 | Nc1ncnc2c1ncn2[C@@H]1O[C@H](CO)[C@@H](O)[C@H]1O [Adenosine, adenosine] |  |  |  | Effect on PS liposome aggregation driven by Iα (Iα polypeptide): modest but evident biphasic effect
5 | Iβ: CFTR polypeptide, positions 509 to 539, NH2-GVSYDEYRYRSVIKACQLEEDISKFAEKDNI-COOH |  |  |  | Aggregation of chromaffin granules [1]: essentially inactive
6 | Cn1c(=O)c2c(ncn2C)n(C)c1=O [Compound 2, 1,3,7-trimethylxanthine, reference compound] | 10 nM |  |  | thresh (nM): minimum concentration required to detect an effect upon chloride efflux (CFPAC cells [2]): 1 nM
7 | Cn1c(=O)c2c(nc(C3CCCCCC3)n2C)n(C)c1=O [Compound 24] | >>10^4 nM | 19.5 ± 2.5 µM | 3.27 ± 0.98 µM | A2a affinity (fold) (A2a-adenosine receptor; A2a versus A1): 6 fold
8 | Cn1c(=O)c2c(nc(C3CCCCC3)n2CC2CC2)n(C)c1=O [Compound 16] | >>10^4 nM | 8.23 ± 1.62 µM | 4.53 ± 1.37 µM | 
9 | CCn1c(C2CCCCC2)nc2c1c(=O)n(C)c(=O)n2C [Compound 15] | >>10^4 nM | 6.66 ± 0.99 µM | 3.23 ± 0.36 µM | 
10 | CCCn1c(=O)c2[nH]c(C3CCC(F)C3)nc2n(CCC)c1=O (centres unmarked) [Compound 9] | >>300 nM | 0.042 µM |  | 
11 | CCCn1c(=O)c2c(nc(C3CCCCC3)n2C)n(CCC)c1=O [Compound 19, 1,3-dipropyl-7-methyl-8-cyclohexylxanthine] | 5 nM | 2.7 µM | 9.24 ± 0.37 µM | Chloride efflux stimulation (summary words) (CFPAC cells [2]): stimulate chloride efflux at μM or lesser concentrations; also recorded: substantial efflux activity at low concentration ranges; thresh (nM): minimum concentration required to detect an effect upon chloride efflux (CFPAC cells [2]): 5 nM; % control: chloride efflux at maximum impact relative to control (CFPAC cells [2]): 170 ± 50%; % control: chloride efflux at minimum detection relative to control (CFPAC cells [2]): 170 ± 50%
12 | CCCn1c(=O)c2[nH]c(C3CCCCC3)nc2n(CCC)c1=O [Compound 18] | >>10^4 nM |  |  | 
13 | Cn1c(=O)c2[nH]c(C3CCCC3)nc2n(C)c1=O [Compound 4, 1,3-dimethyl-8-cyclopentylxanthine, reference compound] | >>10^4 nM | 0.011 µM |  | Activation of chloride efflux from CF cells (words, prior disclosure) (CFPAC cells [3]): ineffective; Affinity for A1 receptor (A1-adenosine receptor): highest A1 affinity
14 | Cn1c(=O)c2c(nc(CC3CCCCC3)n2C)n(C)c1=O [Compound 22, 8-cyclohexylmethyl caffeine] | >>10^4 nM | 3.71 ± 0.36 µM | 5.46 ± 0.47 µM | Efflux rate as compared to control (FIGS. 9-12) (CFPAC cells [2]): 200%
15 | CCCn1c(=O)c2c(nc(C3CCCC3)n2C)n(CCC)c1=O [Compound 6, 1,3-dipropyl-7-methyl-8-cyclopentylxanthine] | 1000 nM | 2.3 µM | 11.4 ± 1.4 µM | Chloride efflux stimulation (summary words) (CFPAC cells [2]): stimulate chloride efflux at μM or lesser concentrations; also recorded: substantial efflux activity at low concentration ranges; thresh (nM): minimum concentration required to detect an effect upon chloride efflux (CFPAC cells [2]): 30 nM; % control: chloride efflux at maximum impact relative to control (CFPAC cells [2]): 180 ± 40%; % control: chloride efflux at minimum detection relative to control (CFPAC cells [2]): 125 ± 30%; Affinity for A1 receptor (A1-adenosine receptor): low affinity; Affinity for A2 receptor (A2a-adenosine receptor): low affinity
16 | Cn1c(=O)c2[nH]c(C3CCCCCC3)nc2n(C)c1=O [Compound 23] | >>10^4 nM | 0.0659 ± 0.0145 µM | 1.05 ± 0.19 µM | melting point: 223 to 225 °C
17 | CCn1c(C2CCCCC2)nc2c1c(=O)n(C)c(=O)n2C (hydrate or solvate) [Compound 15] |  |  |  | melting point: > 170 °C
18 | Cn1c(=O)c2c(nc(C3CCCCC3)n2C)n(C)c1=O [Compound 14, 8-cyclohexyl caffeine] |  |  |  | Chloride efflux stimulation (summary words) (CFPAC cells [2]): stimulate chloride efflux at μM or lesser concentrations; also recorded: substantial efflux activity at low concentration ranges; thresh (nM): minimum concentration required to detect an effect upon chloride efflux (CFPAC cells [2]): 3 nM
19 | CCCn1c(=O)c2[nH]c(C3C=CCC3)nc2n(CCC)c1=O (centres unmarked) [Compound 11] | >>300 nM | 0.045 µM | 0.64 ± 0.061 µM | 
20 | CCn1cnc2c(NC3CCCC3)ncnc21 [Compound 27, 9-ethyl-6-cyclopenyladenine, reference compound] | >>10^4 nM | 0.44 µM | 17 µM | 
21 | Cn1c(=O)c2c(nc(C=Cc3cccc(Cl)c3)n2C)n(C)c1=O [Compound 25, reference compound] | 30 nM |  |  | Chloride efflux stimulation (summary words) (CFPAC cells [2]): stimulate chloride efflux at μM or lesser concentrations; thresh (nM): minimum concentration required to detect an effect upon chloride efflux (CFPAC cells [2]): 30 nM
22 | CCCn1c(=O)c2[nH]c(C3CCC(I)C3)nc2n(CCC)c1=O (centres unmarked) [Compound 10] | >>300 nM | 0.058 µM |  | 
23 | Cn1c(=O)c2[nH]c(CC3CCCCC3)nc2n(C)c1=O [Compound 21] | >>10^4 nM | 0.61 ± 0.076 µM | 5.47 ± 0.86 µM | melting point: 236 to 238 °C
24 | C=CCn1c(=O)c2[nH]c(C3CCCCC3)nc2n(CC=C)c1=O [Compound 17] | 10^3 nM |  | 4.94 ± 0.68 µM | thresh (nM): minimum concentration required to detect an effect upon chloride efflux (CFPAC cells [2]): 30 nM; Efflux rate as compared to control (FIGS. 9-12) (CFPAC cells [2]): > 100%; Ki (A1-adenosine receptor; read-out: Ki for A1 receptors (unit inferred)): ~0.07 µM
25 | CFTR polypeptide, amino acid positions 477 to 508, NH2-PSEGKIKHSGRISFCSQFSWIMPGTIKENEEF-COOH [Iα] |  |  |  | Aggregation of chromaffin granules [1]: drive aggregation; k1/2,app of chromaffin granule aggregation ([1]; 1 mM CaCl2, pH 6.0): 22.2 µg/mL; EC50 ([1]; 1 mM CaCl2, pH 6.0, read-out: k1/2,app of chromaffin granule aggregation): 6.3 µM
